Source: patent publication US10414771B2, “Compounds useful for inhibiting metastasis from cancer and methods using same” (Drexel University, priority 2010, dated 2019)
Where “and” joins values, the source holds several entries; their conditions need not be identical. Identical values can stand only once. Like-named read-outs stand apart in the source and are kept apart here.

Key:
Format in all cases: cell-based
CX3CR1 [1] = biological target: T1, CX3CR1 (Homo sapiens, UniProt P49238); assay: Inhibition of FKN-induced ERK phosphorylation in MDA-436 breast cancer cells over-expressing CX3CR1 (Western blot); parameters: expressed in transfected cells; host or cells: MDA-MB-436 human breast cancer cells; conditions: for inhibition of ERK phosphorylation induced by FKN: compound at 10 μM, incubated 30 minutes, MDA-436 cells over-expressing CX3CR1, 50 nM FKN for 5 minutes
T1 sequence (P49238 1-355): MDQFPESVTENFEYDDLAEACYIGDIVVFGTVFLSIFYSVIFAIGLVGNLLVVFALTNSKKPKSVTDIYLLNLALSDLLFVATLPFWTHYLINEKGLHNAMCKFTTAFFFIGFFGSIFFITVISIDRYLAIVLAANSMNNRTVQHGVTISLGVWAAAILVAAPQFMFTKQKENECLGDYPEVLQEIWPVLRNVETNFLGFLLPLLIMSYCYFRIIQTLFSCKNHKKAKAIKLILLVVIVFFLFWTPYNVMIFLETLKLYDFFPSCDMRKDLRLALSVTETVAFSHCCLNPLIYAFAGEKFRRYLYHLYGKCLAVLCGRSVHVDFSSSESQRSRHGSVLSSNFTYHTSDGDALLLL
Procedure: Cells were serum starved for 4 hours and then exposed to 50 nM recombinant human FKN (R&D systems, Minneapolis, Minn.) for indicated time points.
(§1) Cell lysates were obtained and SDS-polyacrylamide gel electrophoresis and western blot analysis were performed as previously described (Shulby et al., 2004, Cancer Res. 64:4393-98), with few modifications. Membranes were probed with an antibody against CX3CR1 (0.5 μg/ml, Torrey Pines Biolabs, East Orange, N.J.) and actin (Sigma, St. Louis, Mo.) using 5% milk as a blocking reagent. Membranes were also probed with antibodies targeting phospho-p44/42 MAPK (Thr202/Tyr204, Cell Signaling) and total p44/42 MAPK (Cell Signaling). All primary antibody incubations were performed overnight at 4° C. Primary antibody binding was detected using horseradish peroxidase-conjugated anti-rabbit secondary antibody (Pierce, Rockford, Ill.). Chemiluminescent signals were obtained using SuperSignal West Femto reagents (Pierce) and detected with the Fluorochem 8900 imaging system and relative software (Alpha Innotech, San Leandro, Calif.).
Compound 1 was then evaluated for its ability to inhibit the activation of downstream intracellular pathways by CX3CR1 upon stimulation with soluble FKN. In these experiments, MDA-MB 436 human breast cancer cells, engineered to over-express CX3CR1, were treated with 50 nM FKN for 5 minutes after being incubated with compound 1 for 30 minutes.

p-ERK1/2 = p-ERK1/2 inhibition by Western blot analysis
Procedure: as §1

CX3CR1 [2] = biological target: T1, CX3CR1; assay: Calcium mobilization (Ca2+) assay, antagonist mode (CX3CL1 at EC80), HEK293T cells stably expressing human CX3CR1; parameters: Expression vector containing full-length human CX3CR1 cDNA; host or cells: HEK293T; conditions: for % Increase in RFU / RFU: antagonist mode
Procedure: (§2) Cells: Mammalian HEK293T cells stably expressing human CX3CR1 (Multispan, Hayward, Calif.)—Host cell: HEK293T; Transfection: Expression vector containing full-length human CX3CR1 cDNA (GenBank Accession Number NM_001337) with FLAG tag sequence at N-terminus; Propagation Medium: DMEM, 10% FBS, 1 μg/mL puromycin.
(§3) Compounds were reconstituted in DMSO at 10 mM. Control agonist CX3CL1 was from Peprotech (Cat #300-31).
(§4) Calcium assay: Cells expressing the CX3CR1 receptor were transiently transfected with the chimeric G protein Gαqi5 and seeded in 384-well plates at appropriate densities and cultured overnight. Calcium assays were conducted according to the manufacturer's protocols. The calcium dye loading buffer was added to the cells and incubated for one hour at 37° C. Calcium flux was monitored for 90 seconds with compound injected into the wells at 20th second. In antagonist mode, carrier or compounds were preincubated with the cells for 30 minutes before calcium flux measurement with the control agonist at EC80 concentration (0.04 μM).
(§5) Data analysis: Calcium assay results were expressed as “RFU” and “% Increase in RFU” (FIG. 17). Data were represented in Mean±SEM. Dose-response curves were fitted using “Sigmoidal dose-response (variable slope)” function in Prism 4 without constraint. EC50, EC80 and IC50 values were derived from “% Increase in RFU”.

CX3CR1 [3] = biological target: T1, CX3CR1; assay: Calcium mobilization (Ca2+) assay, agonist mode, HEK293T cells stably expressing human CX3CR1; parameters: Expression vector containing full-length human CX3CR1 cDNA; host or cells: HEK293T; conditions: for stimulation of calcium flux (agonist activity): HEK293T cells expressing human CX3CR1
Procedure: as §2, §3, §4, §5

[4] = CX3CL1 at EC80 (0.04 μM), Log [Compounds] M −4.5, listed as JMS-16
[5] = CX3CL1 at EC80 (0.04 μM), Log [Compounds] M −4.8, listed as JMS-16
[6] = CX3CL1 at EC80 (0.04 μM), Log [Compounds] M −5.1, listed as JMS-16
[7] = CX3CL1 at EC80 (0.04 μM), Log [Compounds] M −5.4, listed as JMS-16
[8] = CX3CL1 at EC80 (0.04 μM), Log [Compounds] M −5.7, listed as JMS-16
[9] = CX3CL1 at EC80 (0.04 μM), Log [Compounds] M −6.0, listed as JMS-16
[10] = CX3CL1 at EC80 (0.04 μM), Log [Compounds] M −6.3, listed as JMS-16
[11] = CX3CL1 at EC80 (0.04 μM), Log [Compounds] M −6.6, listed as JMS-16
[12] = agonist mode, Log [Compounds] M −4.5, listed as JMS-16
[13] = agonist mode, Log [Compounds] M −4.8, listed as JMS-16
[14] = agonist mode, Log [Compounds] M −5.1, listed as JMS-16
[15] = agonist mode, Log [Compounds] M −5.4, listed as JMS-16
[16] = agonist mode, Log [Compounds] M −5.7, listed as JMS-16
[17] = agonist mode, Log [Compounds] M −6.0, listed as JMS-16
[18] = agonist mode, Log [Compounds] M −6.3, listed as JMS-16
[19] = agonist mode, Log [Compounds] M −6.6, listed as JMS-16
[20] = EC80 CX3CL1 (0.04 μM) alone, no test compound
[21] = control agonist, Log [CX3CL1] M −6.7
[22] = control agonist, Log [CX3CL1] M −7.2
[23] = control agonist, Log [CX3CL1] M −7.7
[24] = control agonist, Log [CX3CL1] M −8.1
[25] = control agonist, Log [CX3CL1] M −8.6
[26] = control agonist, Log [CX3CL1] M −9.1
[27] = control agonist, Log [CX3CL1] M −9.6
[28] = control agonist, Log [CX3CL1] M −10.0

## N#CC(CCCN1CCC(O)(c2ccc(Cl)cc2)CC1)(c1ccccc1)c1ccccc1 [Compound 1, 5-(4-(4-chlorophenyl)-4-hydroxypiperidin-1-yl)-2,2-diphenylpentanenitrile]
CX3CR1 [1]
  CX3CR1 antagonism (in words): weakly potent
  inhibition of ERK phosphorylation induced by FKN: inhibits ERK phosphorylation
CX3CR1 [1]; listed as compound 1
  inhibition of ERK phosphorylation induced by FKN: able to inhibit the activation of the MAPK pathway
  CX3CR1 antagonism (in words): weak CX3CR1 antagonism

## O=c1c2cccn2c2ccccc2n1CCCN1CCC(O)(c2ccc(Cl)cc2)CC1 [Compound 3, 5-(3-(4-(4-chlorophenyl)-4-hydroxypiperidin-1-yl)propyl)pyrrolo[1,2-a]quinoxalin-4(5H)-one]
p-ERK1/2
  EC50: ~0.01 µM
CX3CR1 [2]; 30 min preincubation, CX3CL1 at EC80 (0.04 μM), read-out: IC50, inhibition of CX3CL1-evoked calcium flux
  IC50: 21 µM
CX3CR1 [2]; [4]
  % Increase in RFU: 4.4% and 3.5% and 2.2%
  RFU: 1.2 RFU and 0.9 RFU and 0.6 RFU
CX3CR1 [2]; [5]
  % Increase in RFU: 27.9% and 23.6% and 26.7%
  RFU: 9.5 RFU and 7.6 RFU and 8.5 RFU
CX3CR1 [2]; [6]
  % Increase in RFU: 45.0% and 38.6% and 38.7%
  RFU: 15.0 RFU and 13.0 RFU and 12.3 RFU
CX3CR1 [2]; [7]
  % Increase in RFU: 52.1% and 45.7% and 41.1%
  RFU: 15.5 RFU and 14.4 RFU and 13.5 RFU
CX3CR1 [2]; [8]
  % Increase in RFU: 48.9% and 53.1% and 47.0%
  RFU: 15.6 RFU and 17.9 RFU and 14.4 RFU
CX3CR1 [2]; [9]
  % Increase in RFU: 58.1% and 54.8% and 53.3%
  RFU: 18.4 RFU and 18.6 RFU and 18.2 RFU
CX3CR1 [2]; [10]
  % Increase in RFU: 46.4% and 46.2% and 42.0%
  RFU: 15.7 RFU and 14.6 RFU and 14.5 RFU
CX3CR1 [2]; [11]
  % Increase in RFU: 45.9% and 41.3% and 44.0%
  RFU: 13.6 RFU and 14.0 RFU and 14.4 RFU
CX3CR1 [3]
  stimulation of calcium flux (agonist activity): agonist activity at the two highest concentrations
CX3CR1 [3]; [12]
  % Increase in RFU: 127.9% and 118.0% and 112.4%
  RFU: 31.7 RFU and 30.7 RFU and 29.0 RFU
CX3CR1 [3]; [13]
  % Increase in RFU: 80.2% and 85.0% and 84.7%
  RFU: 22.1 RFU and 22.5 RFU and 23.3 RFU
CX3CR1 [3]; [14]
  % Increase in RFU: 60.1% and 70.3% and 64.9%
  RFU: 16.5 RFU and 20.3 RFU and 18.8 RFU
CX3CR1 [3]; [15]
  % Increase in RFU: 61.1% and 62.3% and 60.5%
  RFU: 15.5 RFU and 16.9 RFU and 17.1 RFU
CX3CR1 [3]; [16]
  % Increase in RFU: 57.2% and 61.7% and 60.7%
  RFU: 15.2 RFU and 17.8 RFU and 17.1 RFU
CX3CR1 [3]; [17]
  % Increase in RFU: 58.3% and 63.2% and 63.0%
  RFU: 15.6 RFU and 18.7 RFU and 18.6 RFU
CX3CR1 [3]; [18]
  % Increase in RFU: 59.0% and 66.2% and 61.9%
  RFU: 16.0 RFU and 18.2 RFU and 19.5 RFU
CX3CR1 [3]; [19]
  % Increase in RFU: 61.6% and 62.1% and 60.1%
  RFU: 15.5 RFU and 18.6 RFU and 17.8 RFU

B1: CX3CL1: Control agonist CX3CL1 from Peprotech; chemokine ligand of CX3CR1, also called fractalkine or FKN (protein, listed as Homo sapiens)
chain: MAPISLSWLLRLATFCHLTVLLAGQHHGVTKCNITCSKMTSKIPVALLIHYQQNQASCGKRAIILETRQHRLFCADPKEQWVKDAMQHLDRQAAALTRNGGTFEKQIGEVKPRTTPAAGGMDESVVLEPEATGESSSLEPTPSSQEAQRALGTSPELPTGVTGSSGTRLPPTPKAQDGGPVGTELFRVPPVSTAATWQSSAPHQPGPSLWAEAKTSEAPSTQDPSTQASTASSPAPEENAPSEGQRVWGQGQSPRPENSLEREEMGPVPAHTDAFQDWGPGSMAHVSVVPVSSEGTPSREPVASGSWTPKAEEPIHATMDPQRLGVLITPVPDAQAATRRQAVGLLAFLGLLFCLGVAMFTYQSLQGCPRKMAGEMAEGLRYIPRSCGSNSYVLVPV
CX3CR1 [2]; [20]
  % Increase in RFU: 45.9% and 37.2% and 45.8%
  RFU: 16.0 RFU and 10.9 RFU and 15.8 RFU
CX3CR1 [3]
  stimulation of calcium flux (agonist activity): dose-dependent stimulation of calcium flux
CX3CR1 [3]; [21]
  % Increase in RFU: 59.0% and 61.1%
  RFU: 22.2 RFU and 22.7 RFU
CX3CR1 [3]; [22]
  % Increase in RFU: 59.9% and 52.7%
  RFU: 21.4 RFU and 20.1 RFU
CX3CR1 [3]; [23]
  % Increase in RFU: 42.3% and 35.6%
  RFU: 15.5 RFU and 12.4 RFU
CX3CR1 [3]; [24]
  % Increase in RFU: 25.3% and 14.3%
  RFU: 9.3 RFU and 4.8 RFU
CX3CR1 [3]; [25]
  % Increase in RFU: 9.6% and 11.8%
  RFU: 3.3 RFU and 4.0 RFU
CX3CR1 [3]; [26]
  % Increase in RFU: 12.2% and 11.0%
  RFU: 4.4 RFU and 4.1 RFU
CX3CR1 [3]; [27]
  % Increase in RFU: 8.3% and 5.1%
  RFU: 2.9 RFU and 1.9 RFU
CX3CR1 [3]; [28]
  % Increase in RFU: 7.6% and 4.7%
  RFU: 2.6 RFU and 1.6 RFU
